Measurements from patent publication EP4703356A1, “SALT OF PIPERIDYLINDOLE COMPOUND AND PREPARATION METHOD THEREFOR” (Shanghai Hansoh Biomedical Co., Ltd., priority 2023, dated 2024).
pIC50, pKd: −log10 of the molar value. Like-named read-outs stand apart in the source and are kept apart here.

Key:
[1] = biological target: T1, Recombinant human factor B catalytic domain (Homo sapiens, UniProt P00751); assay: Target residence time of factor B inhibitors by surface plasmon resonance (SPR); settings: for t1/2: binding half-life, t1/2 = ln2/koff; for residence time: read-out: Residence time (s)
[2] = biological target: T1, Recombinant human factor B catalytic domain; assay: TR-FRET factor B binding assay
[3] = test system: alternative complement pathway (AP); assay: Assessment of PD inhibition in rat plasma (ex vivo AP ELISA, MAC deposition on LPS, serum after oral dosing); parameters: species or system Sprague-Dawley rats; settings: over 24 hours; for inhibition at 2 mg/kg: Rattus norvegicus, rats, oral 2 mg/kg, AP deposition in 50% serum, read-out: Serum PD inhibition (%) over 24 hours (2 mpk)
Procedure: Male Sprague-Dawley rats (n = 3) were orally administered with vehicles (0.5% (w/v) methylcellulose, 0.5% (v/v) Tween 80), compound Iptacopan, or example compound formulations (in 0.5% (w/v) methylcellulose, 0.5% (v/v) Tween 80) at a dose of 2 mg/kg. Rat serum samples were collected at 0.25, 0.5, 1, 2, 4, 6, 8, and 24 hours post-dosing, and stored at -80°C. […] The coated plates were washed with GVB buffer (Complement technology) containing 5 mM MgCl2 and 10 mM EGTA (blocking both classical and lectin pathways). The collected serum samples were diluted by adding an equal volume of GVB buffer containing 10 mM MgCl2 and 20 mM EGTA. For negative controls, serum was diluted with GVB buffer containing 40 mM EDTA (blocking all complement pathways). Aliquots (50 ul) of 50% serum samples were added to the LPS-coated wells. The reaction plate was incubated at 37°C for 20 minutes (rat serum). […] Baseline (EDTA-treated serum) and maximum signal (EGTA-treated serum from vehicle-treated rats) were used to generate a percent inhibition value for each well.
Each data point in FIG. 37 represents the mean AP activity in rat serum. […] Table 5: Rat 24-hour PD study results

AP complement activation = assay: In vivo assessment of AP complement functional activity in mice (LPS-induced, plasma C3b/iC3b/C3c ELISA); parameters: species or system C57BL/6 mice; settings: LPS 2.5 mg/kg i.p. 7.5 hours before end, compound 20 mg/kg oral 20 hours before end
Procedure: 20 hours before the end of the study, female C57BL/6 mice were orally gavaged with the formulation of compound of Example 3 (20 mg/kg, 0.5% (w/v) methylcellulose, 0.5% (v/v) Tween 80). To activate the complement pathway, lipopolysaccharide (LPS) from Salmonella typhimurium (Sigma) was injected intraperitoneally (2.5 mg/kg) 7.5 hours before the end of the study. Control mice received intraperitoneal injections of normal saline and oral gavage administration of vehicles. At the end of the study, plasma samples were collected from the mice. AP complement activation was assessed by measuring plasma C3 cleavage products, C3b/iC3b/C3c, using an ELISA method with rat anti-mouse C3b/iC3b/C3c monoclonal antibodies (clone 2/11, Hycult Biotech, 0.1 µg/well), and a goat anti-rat IgG (whole molecule)-peroxidase (Sigma) diluted in TBST (TBS/0.05% Tween 20). Table 4: Plasma C3b/iC3b/C3c following treatment

[4] = Pharmacokinetic study in rat eyes; type: in vivo, brown Norway rats; settings: Brown Norway, 2 mg/kg, 2 mpk PO; for half-life: in vivo
Procedure: Three-month-old brown Norway rats were orally gavaged with the example compound as a suspension in 2 equivalents of 1 N HCl + 30% PEG300 + 50% (20% Cremophor EL aqueous solution). At 0.25, 0.5, 1, 6, and 24 hours post-dosing, ocular tissues and plasma were collected from both eyes of the rats at respective time points. The ocular tissues collected comprised retina and the posterior eyecup (RPE/choroid and posterior sclera). Tissues were diluted with phosphate-buffered saline containing 10% acetonitrile, followed by homogenization and centrifugation prior to analysis. At each time point, test article concentrations in plasma and eye homogenate supernatants were measured in four individual retinal samples, four individual posterior eyecup samples and two individual plasma samples by using HPLC-MS/MS. Chromatographic separation was performed on a Waters BEH C18 column (2.1 × 50 mm, 1.7 µm) (MAC-MOD Analytical, Chadds-Ford, PA) with a gradient elution method using water and acetonitrile, both containing 0.025% formic acid-1 M NH4OAc. Mass spectrometry measurements in positive electrospray ionization were performed to quantify mass transitions using [M+H]+ as the precursor ion on an API6500 triple quadrupole mass spectrograph (Sciex, Framingham, MA). The relevant pharmacokinetic parameters were estimated using the non-compartmental method in WinNonlin (Enterprise, version 8.2). Table 3: Rat PK study results (2 mpk PO)

[5] = Salt form screening (natural evaporation and reactive crystallisation); type: physicochemical; parameters: key to PLM/XRPD or slurry solvent: "√" indicates the presence of birefringence phenomenon; "×" indicates the absence of birefringence phenomenon; settings: for PLM/XRPD or slurry solvent: 1:1; for Characterization result: reactive crystallisation, Ethyl acetate, 1:1, stirred room temperature about 24 hours
Procedure: Salt form screening experiments were conducted via the solvent evaporation method. About 10 mg of the free base of Example 3 was weighed into a 2 mL glass vial and dissolved in 100 µL of an organic solvent. A solution of the counterion acid in methanol was added dropwise at a molar ratio of 1:1. The resulting clear solution was allowed to evaporate at room temperature. The obtained solid was first characterised by PLM. If no birefringence was observed, the solids were slurried by adding a solvent. If birefringence was observed, the solids were further characterised by XRPD. Compounds with high crystallinity were selected for characterization by DSC and TGA.
Approximately 10 mg of the free base compound of Example 3 was weighed into a 2 mL glass vial and dissolved in 100 µL of an organic solvent. 22 µL of a solution of the acid in ethyl acetate was slowly added dropwise at a molar ratio of 1 : 1 under stirring. The resulting clear solution was stirred at room temperature for approximately 24 hours. The resulting solid was dried in vacuo at 40°C and characterised by XRPD, DSC and TGA.

[6] = plasma, read-out: Plasma AUC0-last
[7] = retina, read-out: Retina AUC0-last

T1 sequence (P00751 470-764): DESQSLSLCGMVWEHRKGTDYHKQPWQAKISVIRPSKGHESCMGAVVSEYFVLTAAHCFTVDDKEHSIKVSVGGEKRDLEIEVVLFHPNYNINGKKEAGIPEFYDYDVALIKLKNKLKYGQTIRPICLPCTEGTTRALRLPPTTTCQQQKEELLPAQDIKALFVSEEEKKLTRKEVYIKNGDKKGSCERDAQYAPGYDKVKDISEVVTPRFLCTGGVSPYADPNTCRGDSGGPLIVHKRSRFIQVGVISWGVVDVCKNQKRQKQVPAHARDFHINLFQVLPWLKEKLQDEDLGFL

## COc1cc(C)c2[nH]ccc2c1CN1CCC2(C[C@H]1c1ccc(C(=O)O)cc1C(F)F)CC(F)(F)C2 [Example 1]
[1]
  pKd: 9.11
  t1/2: 0.8911 h
  residence time: 4630 s
[2]
  pIC50: > 8.70

## Cc1cc(C2CC2)c(CN2CCC3(C[C@H]2c2ccc(C(=O)O)cc2)CC(F)(F)C3)c2cc[nH]c12 [Example 2]
[1]
  pKd: 9.42
  t1/2: 1.214 h
  residence time: 6310 s
[2]
  pIC50: > 8.70

## COc1cc(C)c2[nH]ccc2c1CN1CCC2(C[C@H]1c1ccc(C(=O)O)cc1C)CC(F)(F)C2 [Example 3, (S)-4-(2,2-difluoro-7-((5-methoxy-7-methyl-1H-indol-4-yl)methyl)-7-azaspiro[3.5]nonan-6-yl)-3-methylbenzoic acid]
[3]; 2 mg/kg oral, 50% serum
  inhibitory effects in the ex vivo PD assay in rats: sustained inhibitory effects
[3]
  inhibition at 2 mg/kg: 57.5%
AP complement activation
  Plasma C3b/iC3b/C3c (1 x 10^6): 210.25 ^ns 1 x 10^6
[1]
  pKd: 9.77
  t1/2: 1.188 h
  residence time: 6170 s
[2]
  pIC50: > 8.70
[4]; [6]
  AUC(0-t): 12.7 µM·h
[4]; [7]
  AUC(0-t): 0.796 µM·h
[4]
  half-life: 1330 min
[5]; natural evaporation, Acetone, Hydrobromic acid (22 µL), slurried in ethyl acetate
  Post-slurry PLM/XRPD: √, crystal form A of hydrobromide
[5]; natural evaporation, Acetone, Hydrochloric acid (22 µL), slurried in ethyl acetate
  Post-slurry PLM/XRPD: √, high crystallinity, crystal form A of hydrochloride
[5]; natural evaporation, Acetone, Methanesulphonic acid (22 µL), slurried in ethyl acetate
  Post-slurry PLM/XRPD: √, crystal form A of methanesulfonat e
[5]; natural evaporation, Acetone, p-Toluenesulphonic acid (22 µL), slurried in ethyl acetate
  Post-slurry PLM/XRPD: √, crystal form A of p-toluenesulfonate
[5]; natural evaporation, Methanol, Hydrochloric acid (22 µL), slurried in 2-methyltetrahydrofuran
  Post-slurry PLM/XRPD: √, crystal form B of hydrochloride
[5]; natural evaporation, solvent Acetone, Hydrobromic acid (22 µL)
  PLM/XRPD or slurry solvent: ×, ethyl acetate
[5]; natural evaporation, solvent Acetone, Hydrochloric acid (22 µL)
  PLM/XRPD or slurry solvent: ×, ethyl acetate
[5]; natural evaporation, solvent Acetone, Methanesulphonic acid (22 µL)
  PLM/XRPD or slurry solvent: ×, ethyl acetate
[5]; natural evaporation, solvent Acetone, p-Toluenesulphonic acid (22 µL)
  PLM/XRPD or slurry solvent: ×, ethyl acetate
[5]; natural evaporation, solvent Methanol, Adipic acid (22 µL)
  PLM/XRPD or slurry solvent: √, crystal form A of adipate
[5]; natural evaporation, solvent Methanol, Fumaric acid (88 µL)
  PLM/XRPD or slurry solvent: √, crystal form A of fumarate
[5]; natural evaporation, solvent Methanol, Hippuric acid (55 µL)
  PLM/XRPD or slurry solvent: √, crystal form A of hippurate
[5]; natural evaporation, solvent Methanol, Hydrobromic acid (22 µL)
  PLM/XRPD or slurry solvent: √, high crystallinity
[5]; natural evaporation, solvent Methanol, Hydrochloric acid (22 µL)
  PLM/XRPD or slurry solvent: ×, 2-methyltetrahydrofuran
[5]; natural evaporation, solvent Methanol, Malonic acid (22 µL)
  PLM/XRPD or slurry solvent: √, crystal form A of malonate
[5]; natural evaporation, solvent Methanol, Oxalic acid (22 µL)
  PLM/XRPD or slurry solvent: √, crystal form A of oxalate
[5]; natural evaporation, solvent Methanol, Succinic acid (22 µL)
  PLM/XRPD or slurry solvent: √, crystal form A of succinate
[5]; Hydrobromic acid
  Characterization result: Crystal form A of hydrobromide
[5]; Hydrochloric acid
  Characterization result: Crystal form A of hydrochloride
[5]; Methanesulphonic acid
  Characterization result: Crystal form A of methanesulfonate
[5]; solvent Ethyl acetate, Hydrobromic acid (22 µL), Clear → Suspension (slurried)
  PLM/XRPD or slurry solvent: √, crystal form A of hydrobromide
[5]; solvent Toluene, Hydrobromic acid (22 µL), Clear → Suspension (slurried)
  PLM/XRPD or slurry solvent: √, crystal form A of hydrobromide

## CCO[C@H]1CCN(Cc2c(OC)cc(C)c3[nH]ccc23)[C@H](c2ccc(C(=O)O)cc2)C1 [Iptacopan, reference compound]
[3]
  inhibition at 2 mg/kg: -3%
[4]; [6]
  AUC(0-t): 13.5 µM·h
[4]; [7]
  AUC(0-t): 0.141 µM·h
[4]
  half-life: 318 min
